Experimental data reported in patent US9855230B2 (ViiV Healthcare UK (No. 5) Limited, priority 2014, dated 2018).
Where a name gives a salt, the structure may show the parent alone. Read-outs that look alike come from different tables or passages of the source.

How the values were obtained:
[1] = tested on: recombinant NL4-3 virus (nef section replaced with Renilla luciferase gene) in MT-2 cells; assay: whole plant or invertebrate; format: cell-based, HIV; conditions: NL43, luciferase activity in MT-2 cells infected 4-5 days with recombinant NL4-3 virus
Method in brief: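 Nef-deleted NL4-3 reporter virus carrying Renilla luciferase was used to infect MT-2 cells in the presence of serial compound dilutions. After 4-5 days of infection, antiviral activity was quantified from luciferase activity using a live-cell substrate.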

[2] = Compound cytotoxicity (CC50), XTT-based colorimetric assay; format: cell-based; conditions: human; uninfected MT2 cells, day 4, XTT assay
Method in brief: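 Run under the antiviral-assay protocol but without virus. Viability was read on day 4 and CC50 values were derived from the readout.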

In the case of `COC(=O)Nc1ccc(-n2ccnc2[C@H](Cc2ccccc2)NC(=O)NS(=O)(=O)c2ccccc2C)cc1` [Example 2, (S)-methyl (4-(2-(2-phenyl-1-(3-(o-tolylsulfonyl)ureido)ethyl)-1H-imidazol-1-yl)phenyl)carbamate], the EC50 ([1]; read-out: Activity) is reported as < 100 nM and the CC50 at 4 day [2] is reported as > 100000 nM.
In the case of `Cc1ccccc1S(=O)(=O)NC(=O)N[C@@H](Cc1ccccc1)c1nccn1-c1cnn(Cc2ccccc2)c1` [Example 81, (S)-N-((1-(1-(1-benzyl-1H-pyrazol-4-yl)-1H-imidazol-2-yl)-2-phenylethyl)carbamoyl)-2-methylbenzenesulfonamide], the EC50 ([1]; read-out: Activity) is reported as 100 to 1000 nM, the EC50 ([1]; read-out: EC50) is reported as 550 nM and the CC50 at 4 day [2] is reported as > 100000 nM.
In the case of `Cc1ccccc1S(=O)(=O)NC(=O)N[C@@H](Cc1ccccc1)c1nccn1-c1ccc(OC(F)(F)F)cc1` [Example 11, (S)-2-methyl-N-((2-phenyl-1-(1-(4-(trifluoromethoxy)phenyl)-1H-imidazol-2-yl)ethyl)carbamoyl)benzenesulfonamide], the EC50 ([1]; read-out: Activity) is reported as < 100 nM and the CC50 at 4 day [2] is reported as 59000 nM.
For `COC(=O)Nc1ccc(-n2ccnc2[C@H](Cc2ccccc2)NC(=O)NS(=O)(=O)c2cccc(Cl)c2Cl)cc1` [Example 51, (S)-methyl (4-(2-(1-(3-((2,3-dichlorophenyl)sulfonyl)ureido)-2-phenylethyl)-1H-imidazol-1-yl)phenyl)carbamate], the EC50 ([1]; read-out: Activity) was 100 to 1000 nM, the EC50 ([1]; read-out: EC50) was 160 nM and the CC50 at 4 day [2] was > 100000 nM.
In the case of `COC(=O)Nc1ccc(-n2ccnc2[C@H](Cc2ccccc2)NC(=O)NS(=O)(=O)Cc2ccccc2)cc1` [Example 47, (S)-methyl (4-(2-(1-(3-(benzylsulfonyl)ureido)-2-phenylethyl)-1H-imidazol-1-yl)phenyl)carbamate], the EC50 ([1]; read-out: Activity) is reported as 100 to 1000 nM and the CC50 at 4 day [2] is reported as > 33000 nM.
With `O=C(NC(Cc1cc(F)cc(F)c1)c1ncccc1Br)NS(=O)(=O)c1ccccc1Cl` (stereo in doubt) [Example 113, (S)-N-((1-(3-bromopyridin-2-yl)-2-(3,5-difluorophenyl)ethyl)carbamoyl)-2-chlorobenzenesulfonamide, TFA] the EC50 ([1]; read-out: Activity) was > 1000 nM and the CC50 at 4 day [2] was > 100000 nM.
In the case of `COC(=O)Nc1cccc(-n2ccnc2[C@H](Cc2ccccc2)NC(=O)NS(=O)(=O)c2ccccc2C)c1` [Example 76, (S)-methyl (3-(2-(2-phenyl-1-(3-(o-tolylsulfonyl)ureido)ethyl)-1H-imidazol-1-yl)phenyl)carbamate], the EC50 ([1]; read-out: Activity) is reported as 100 to 1000 nM and the CC50 at 4 day [2] is reported as > 100000 nM.
For `COc1ccc(Cn2ccnc2[C@H](Cc2ccccc2)NC(=O)NS(=O)(=O)c2ccccc2C)cc1` [Example 40, (S)-N-((1-(1-(4-methoxybenzyl)-1H-imidazol-2-yl)-2-phenylethyl)carbamoyl)-2-methylbenzenesulfonamide], the EC50 ([1]; read-out: Activity) was 100 to 1000 nM and the CC50 at 4 day [2] was > 33000 nM.
For `CC(=O)Nc1ccc(-n2ccnc2[C@H](Cc2ccccc2)NC(=O)NS(=O)(=O)c2ccccc2C)cc1` [Example 35, (S)-N-(4-(2-(2-phenyl-1-(3-(o-tolylsulfonyl)ureido)ethyl)-1H-imidazol-1-yl)phenyl)acetamide], the EC50 ([1]; read-out: Activity) was 100 to 1000 nM and the CC50 at 4 day [2] was > 33000 nM.
With `Cc1ccccc1S(=O)(=O)NC(=O)N[C@@H](Cc1cc(F)cc(F)c1)c1ncccc1-c1cncc(F)c1` [Example 100, (S)-N-((2-(3,5-difluorophenyl)-1-(5′-fluoro-[3,3′-bipyridin]-2-yl)ethyl)carbamoyl)-2-methylbenzenesulfonamide, 2 TFA] the EC50 ([1]; read-out: Activity) was > 1000 nM and the CC50 at 4 day [2] was > 100000 nM.
With `Cc1ccccc1S(=O)(=O)NC(=O)N[C@@H](Cc1ccccc1)c1nccn1-c1ccc(OC(C)C)cc1` [Example 21, (S)-N-((1-(1-(4-isopropoxyphenyl)-1H-imidazol-2-yl)-2-phenylethyl)carbamoyl)-2-methylbenzenesulfonamide] the EC50 ([1]; read-out: Activity) was < 100 nM, the EC50 ([1]; read-out: EC50) was 50 nM and the CC50 at 4 day [2] was > 100000 nM.
In the case of `Cc1ccccc1S(=O)(=O)NC(=O)N[C@@H](Cc1ccccc1)c1nccn1-c1ccc(F)cc1` [Example 5, (S)-N-((1-(1-(4-fluorophenyl)-1H-imidazol-2-yl)-2-phenylethyl)carbamoyl)-2-methylbenzenesulfonamide], the EC50 ([1]; read-out: Activity) is reported as 100 to 1000 nM and the CC50 at 4 day [2] is reported as > 100000 nM.
